From the supplement of paper PMC10331698
± gives the standard deviation of the averaged measurements.

Columns and labels:
Experiment in all cases: level (log10 ratio to DMSO vehicle control); higher = higher biomarker level / cell amount than vehicle control
[1] = compound: C=C(C)C(=O)OCCC(F)(F)C(F)(F)C(F)(F)C(F)(F)C(F)(F)C(F)(F)C(F)(F)C(F)(F)F [8:2 Fluorotelomer methacrylate] (in DMSO)
Method: (§1)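 BioMAP Diversity Plus panel of 12 human primary cell co-culture systems (3C, 4H, LPS, SAg, BT, BF4T, BE3C, CASM3C, HDF3CGF, KF3CT, MyoF, Mphg). Compounds were added 1 h before stimulation and left for 24 h (MyoF 48 h; BT 72 h for soluble read-outs or 6 d for IgG). Biomarkers were read by ELISA, cytotoxicity by SRB, PBMC viability and proliferation by Alamar Blue. Each well value was divided by the mean of 8 DMSO control wells on the same plate and log10 transformed; duplicate blinded samples were tested at 4 concentrations.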

[2] = compound: CN(C(=O)C(F)(F)C(F)(F)C(F)(F)F)[Si](C)(C)C [N-Methyl-N-trimethylsilylheptafluorobutyramide] (in DMSO)
Method: as §1

[3] = compound: C[C@@H]1C[C@H]2[C@@H]3CCC4=CC(=O)C=C[C@]4(C)[C@@]3(F)[C@@H](O)C[C@]2(C)[C@@]1(O)C(=O)COP(=O)(O)O [Dexamethasone sodium phosphate] (in DMSO)
Method: as §1

[4] = compound: NS(=O)(=O)C(F)(F)C(F)(F)C(F)(F)C(F)(F)C(F)(F)C(F)(F)C(F)(F)C(F)(F)F [Perfluorooctanesulfonamide] (in DMSO)
Method: as §1

[5] = compound: O=C(O)C(F)(OC(F)(F)C(F)(OC(F)(F)C(F)(OC(F)(F)C(F)(F)C(F)(F)F)C(F)(F)F)C(F)(F)F)C(F)(F)F [Perfluoro-(2,5,8-trimethyl-3,6,9-trioxadodecanoic)acid] (in DMSO)
Method: as §1

[6] = compound: O=C(O)CCC(F)(C(F)(F)F)C(F)(F)F [4,4-bis(Trifluoromethyl)-4-fluoropropanoic acid] (in DMSO)
Method: as §1

[7] = compound: OCC(F)(F)C(F)(F)C(F)(F)C(F)F [1H,1H,5H-Perfluoropentanol] (in DMSO)
Method: as §1

Test System | level (log10) ([1]; 6700 nM) | level (log10) ([1]; 20000 nM) | level (log10) ([2]; 6700 nM) | level (log10) ([2]; 20000 nM) | level (log10) ([2]; 60000 nM) | level (log10) ([3]; 1500 nM) | level (log10) ([3]; 4400 nM) | level (log10) ([3]; 13000 nM) | level (log10) ([3]; 40000 nM) | level (log10) ([4]; 6700 nM) | level (log10) ([4]; 20000 nM) | level (log10) ([5]; 1100 nM) | level (log10) ([5]; 3300 nM) | level (log10) ([5]; 10000 nM) | level (log10) ([6]; 6700 nM) | level (log10) ([6]; 20000 nM) | level (log10) ([6]; 60000 nM) | level (log10) ([7]; 6700 nM) | level (log10) ([7]; 20000 nM) | level (log10) ([7]; 60000 nM)
BT:sIL-17F | 0.032 ± 0.037 | 0.1 ± 0.023 | -0.017 ± 0.027 | -0.008 ± 0.13 | 0.0005 ± 0.07 | -0.259 ± 0.0099 | -0.251 ± 0.058 | -0.262 ± 0.012 | -0.239 ± 0.047 | -0.0365 ± 0.084 | -0.0785 ± 0.11 | 0.044 ± 0.064 | 0.0125 ± 0.16 | -0.0705 ± 0.046 | 0.064 ± 0.13 | 0.0385 ± 0.087 | -0.005 ± 0.0085 | -0.0035 ± 0.067 | -0.051 ± 0.035 | -0.013 ± 0.25
BF4T:CD106/VCAM-1 | -0.0225 ± 0.00071 | -0.0495 ± 0.022 | 0.0095 ± 0.025 | 0.0315 ± 0.015 | 0.0035 ± 0.026 | -0.019 ± 0.011 | -0.013 ± 0.028 | -0.02 ± 0.0085 | -0.049 ± 0.0042 | -0.052 ± 0.0057 | -0.1125 ± 0.00071 | -0.027 ± 0.0028 | -0.0185 ± 0.026 | -0.018 ± 0.023 | 0.018 ± 0.011 | -0.011 ± 0.031 | -0.0445 ± 0.0021 | -0.019 ± 0.085 | 0.0225 ± 0.029 | 0.021 ± 0.081
LPS:CXCL8/IL-8 | -0.037 ± 0.05 | -0.0225 ± 0.076 | 0.008 ± 0.0028 | 0.0245 ± 0.018 | 0.016 ± 0.052 | 0.026 ± 0.014 | -0.017 ± 0.02 | -0.0135 ± 0.025 | -0.0475 ± 0.076 | 0.005 ± 0.016 | -0.008 ± 0.0014 | 0.0045 ± 0.016 | -0.0045 ± 0.0064 | 0.0095 ± 0.0021 | 0.011 ± 0.0028 | 0.007 ± 0.02 | 0.0135 ± 0.054 | 0.004 ± 0.0057 | 0.0185 ± 0.005 | 0.001 ± 0.025
BF4T:Keratin 8/18 | -0.019 ± 0.0028 | 0.0115 ± 0.016 | -0.0105 ± 0.052 | 0.0115 ± 0.03 | 0.013 ± 0.017 | 0.011 ± 0.047 | -0.0015 ± 0.013 | -0.0105 ± 0.019 | -0.0025 ± 0.015 | -0.0085 ± 0.005 | -0.069 ± 0.023 | 0.024 ± 0.0099 | 0.0055 ± 0.022 | 0.018 ± 0.0099 | -0.0015 ± 0.0064 | -0.032 ± 0.051 | -0.0015 ± 0.03 | -0.046 ± 0.033 | 0.006 ± 0.044 | 0.0235 ± 0.023
BT:sIL-17A | 0.077 ± 0.13 | 0.041 ± 0.16 | -0.0195 ± 0.073 | -0.192 ± 0.11 | 0.071 ± 0.0042 | -0.776 ± 0.019 | -0.55 ± 0.03 | -0.652 ± 0.057 | -0.717 ± 0.042 | -0.0315 ± 0.16 | 0.0435 ± 0.052 | -0.024 ± 0.11 | 0.121 ± 0.12 | 0.0575 ± 0.17 | -0.037 ± 0.064 | 0.087 ± 0.054 | -0.019 ± 0.19 | -0.0225 ± 0.086 | 0.044 | -0.0225 ± 0.25
LPS:SRB | -0.0085 ± 0.016 | -0.0005 ± 0.023 | 0.0045 ± 0.012 | 0.0045 ± 0.0078 | 0 ± 0.0028 | 0.008 ± 0.0085 | -0.012 ± 0.0071 | -0.003 ± 0.0099 | 0.006 ± 0.031 | 0.009 ± 0.0057 | -0.0625 ± 0.0078 | -0.008 ± 0.0042 | -0.0125 ± 0.005 | -0.001 ± 0.0085 | -0.0045 ± 0.0064 | -0.0035 ± 0.00071 | 0.0135 ± 0.0092 | -0.017 ± 0.0014 | -0.0115 ± 0.00071 | -0.0005 ± 0.0078
LPS:CCL2/MCP-1 | -0.0045 ± 0.047 | 0.042 ± 0.0085 | -0.0085 ± 0.0021 | -0.012 ± 0.013 | -0.0005 ± 0.023 | 0.023 ± 0.011 | -0.0045 ± 0.012 | -0.013 ± 0.0071 | -0.0105 ± 0.088 | -0.0035 ± 0.013 | 0.0165 ± 0.0021 | -0.0105 ± 0.022 | -0.014 ± 0.0042 | -0.002 ± 0.0099 | 0.024 ± 0.037 | 0 ± 0.014 | 0.0155 ± 0.07 | -0.006 ± 0.0071 | 0.004 ± 0.014 | 0.007 ± 0.04
BF4T:tPA | -0.027 ± 0.0028 | -0.017 ± 0.0057 | -0.0155 ± 0.015 | 0.0015 ± 0.032 | 0.012 ± 0.0057 | 0.0375 ± 0.05 | 0.01 ± 0.034 | 0.0145 ± 0.016 | 0.027 ± 0.021 | -0.059 ± 0.013 | 0.006 ± 0.02 | -0.012 ± 0.02 | -0.012 ± 0.0042 | -0.0035 ± 0.021 | -0.0185 ± 0.035 | -0.019 ± 0.013 | -0.0035 ± 0.023 | -0.009 ± 0.028 | 0.0335 ± 0.022 | 0.04 ± 0.058
3C:Proliferation | -0.0315 ± 0.005 | -0.07 ± 0.034 | -0.0305 ± 0.0092 | 0.003 ± 0.027 | -0.005 ± 0.0057 | -0.0115 ± 0.005 | 0.011 ± 0.092 | -0.0045 ± 0.052 | 0.015 ± 0.02 | -0.039 ± 0.0099 | -0.208 ± 0.02 | 0.007 ± 0.02 | 0.013 ± 0.0085 | -0.011 ± 0.013 | -0.05 ± 0.051 | -0.015 ± 0.058 | 0.0345 ± 0.03 | -0.0045 ± 0.066 | 0.005 ± 0.0071 | -0.033 ± 0.093
BE3C:CXCL10/IP-10 | -0.0005 ± 0.018 | -0.0105 ± 0.028 | -0.006 ± 0.0028 | 0.005 ± 0.0014 | 0.007 ± 0.011 | 0.0215 ± 0.021 | 0.014 ± 0.028 | 0 ± 0.02 | -0.0035 ± 0.016 | -0.142 ± 0.0078 | -0.414 ± 0.0028 | 0.035 ± 0.024 | 0.0325 ± 0.015 | 0.036 ± 0.0071 | 0.006 ± 0.034 | 0.0035 ± 0.023 | -0.0045 ± 0.0035 | -0.0015 ± 0.016 | 0.005 ± 0.017 | 0.0165 ± 0.042
BF4T:MMP-9 | -0.002 ± 0.059 | 0.026 ± 0.061 | -0.0305 ± 0.064 | -0.012 ± 0.033 | 0.0095 ± 0.023 | 0.051 ± 0.041 | 0.026 ± 0.037 | 0.0035 ± 0.046 | 0.0225 ± 0.063 | -0.006 ± 0.025 | -0.113 ± 0.018 | 0.0045 ± 0.015 | -0.003 ± 0.0028 | 0.0135 ± 0.00071 | 0.0265 ± 0.042 | 0.0145 ± 0.022 | 0.015 ± 0.042 | -0.001 ± 0.0085 | 0.0065 ± 0.019 | 0.0035 ± 0.013
BE3C:EGFR | -0.007 ± 0.02 | -0.01 ± 0.031 | -0.0065 ± 0.00071 | -0.0165 ± 0.013 | -0.01 ± 0.028 | 0.008 ± 0.042 | -0.0035 ± 0.013 | -0.011 ± 0.0071 | -0.0145 ± 0.005 | -0.0005 ± 0.00071 | -0.044 ± 0.0014 | 0.0085 ± 0.0021 | 0.0035 ± 0.0035 | 0.0185 ± 0.0078 | 0.003 ± 0.02 | -0.0105 ± 0.018 | -0.012 ± 0.014 | -0.008 ± 0.0099 | 0.0105 ± 0.011 | 0.032 ± 0.065
LPS:CD142/Tissue Factor | 0.0615 ± 0.063 | 0.0315 ± 0.083 | 0.015 ± 0.065 | 0.0255 ± 0.1 | -0.0085 ± 0.1 | 0.0495 ± 0.026 | 0.03 ± 0.023 | 0.014 ± 0.03 | 0.038 ± 0.028 | -0.024 ± 0.047 | -0.043 ± 0.0071 | 0.0115 ± 0.013 | -0.011 ± 0.021 | 0.022 ± 0.0085 | 0.045 ± 0.031 | 0.038 ± 0.059 | 0.02 ± 0.051 | -0.001 ± 0.021 | 0.017 ± 0.03 | 0.023 ± 0.021
3C:CXCL8/IL-8 | -0.005 ± 0.017 | 0.0305 ± 0.012 | -0.016 ± 0.0071 | -0.017 ± 0.0042 | 0.007 ± 0.017 | 0.014 ± 0.027 | -0.0015 ± 0.0035 | -0.0035 ± 0.032 | -0.007 ± 0.062 | 0.012 ± 0.018 | 0.0635 ± 0.0064 | -0.004 ± 0.021 | -0.015 ± 0.011 | 0.005 ± 0.024 | 0.0215 ± 0.039 | 0.014 ± 0.055 | 0.0285 ± 0.054 | 0.0115 ± 0.023 | 0.0035 ± 0.03 | 0.0545 ± 0.063
